# Laboratory results taken from PubChem BioAssay AID1259407 (Chemical Carcinogenesis Research Information System (CCRIS), 2018).
# The source made the active and inactive calls. The rule behind the calls is not given here.
# System: CCRIS mutagenicity, Ames/micronucleus/aberration tests
# Assay: CCRIS mutagenicity studies
# [1] = Test System: AMES SALMONELLA TYPHIMURIUM, Strain/Indicator: TA98, Metabolic Activation: NONE, Method: STANDARD PLATE
# [2] = Test System: AMES SALMONELLA TYPHIMURIUM, Strain/Indicator: TA98, Metabolic Activation: RAT, LIVER, S-9, AROCLOR 1254, Method: PREINCUBATION
# [3] = Test System: AMES SALMONELLA TYPHIMURIUM, Strain/Indicator: TA100, Metabolic Activation: NONE, Method: STANDARD PLATE
structure (smiles),measurement,setting,value
O=C1CN(/N=C/c2ccc([N+](=O)[O-])o2)C(=O)N1,mutagenic call,"End Point: IN VITRO CHROMOSOMAL ABERRATIONS, Test System: CHO CELLS, Metabolic Activation: NONE",active; positive
same,mutagenic call,"End Point: IN VITRO CHROMOSOMAL ABERRATIONS, Test System: CHO CELLS, Metabolic Activation: RAT, LIVER, S-9, AROCLOR 1254",active; positive
same,mutagenic call,"Test System: AMES SALMONELLA TYPHIMURIUM, Strain/Indicator: TA97, Metabolic Activation: NONE, Method: FLUCTUATION TEST",active; positive
same,mutagenic call,"Test System: AMES SALMONELLA TYPHIMURIUM, Strain/Indicator: TA97, Metabolic Activation: NONE, Method: STANDARD PLATE",active; positive
same,mutagenic call,"Test System: AMES SALMONELLA TYPHIMURIUM, Strain/Indicator: TA98(1,8-DNP6), Metabolic Activation: NONE, Method: STANDARD PLATE",active; positive
same,mutagenic call,"Test System: AMES SALMONELLA TYPHIMURIUM, Strain/Indicator: TA98(1,8-DNP6), Metabolic Activation: RAT, LIVER, S-9, 3-METHYLCHOLANTHRENE, Method: STANDARD PLATE",active; positive
same,mutagenic call,"Test System: AMES SALMONELLA TYPHIMURIUM, Strain/Indicator: TA98(NR), Metabolic Activation: NONE, Method: STANDARD PLATE",active; positive
same,mutagenic call,"Test System: AMES SALMONELLA TYPHIMURIUM, Strain/Indicator: TA98(NR), Metabolic Activation: RAT, LIVER, S-9, 3-METHYLCHOLANTHRENE, Method: STANDARD PLATE",active; positive
same,mutagenic call,"Test System: AMES SALMONELLA TYPHIMURIUM, Strain/Indicator: TA98, Metabolic Activation: HAMSTER, LIVER, S-9, AROCLOR 1254, Method: PREINCUBATION",active; positive
same,mutagenic call,"Test System: AMES SALMONELLA TYPHIMURIUM, Strain/Indicator: TA98, Metabolic Activation: NONE",inactive; negative
same,mutagenic call,"Test System: AMES SALMONELLA TYPHIMURIUM, Strain/Indicator: TA98, Metabolic Activation: NONE, Method: FLUCTUATION (MICROTITER)",active; positive
same,mutagenic call,"Test System: AMES SALMONELLA TYPHIMURIUM, Strain/Indicator: TA98, Metabolic Activation: NONE, Method: PREINCUBATION",active; positive
same,mutagenic call,[1],active; positive
same,mutagenic call,"Test System: AMES SALMONELLA TYPHIMURIUM, Strain/Indicator: TA98, Metabolic Activation: RAT, LIVER, S-9, 3-METHYLCHOLANTHRENE, Method: STANDARD PLATE",active; positive
same,mutagenic call,[2],active; positive
same,mutagenic call,"Test System: AMES SALMONELLA TYPHIMURIUM, Strain/Indicator: TA98, Metabolic Activation: S-9",inactive; negative
same,mutagenic call,"Test System: AMES SALMONELLA TYPHIMURIUM, Strain/Indicator: TA100, Metabolic Activation: HAMSTER, LIVER, S-9, AROCLOR 1254, Method: PREINCUBATION",active; positive
same,mutagenic call,"Test System: AMES SALMONELLA TYPHIMURIUM, Strain/Indicator: TA100, Metabolic Activation: NONE",active; positive
same,mutagenic call,"Test System: AMES SALMONELLA TYPHIMURIUM, Strain/Indicator: TA100, Metabolic Activation: NONE, Method: PREINCUBATION",active; positive
same,mutagenic call,[3],active; positive
same,mutagenic call,"Test System: AMES SALMONELLA TYPHIMURIUM, Strain/Indicator: TA100, Metabolic Activation: RAT, LIVER, S-9, AROCLOR 1254, Method: PREINCUBATION",active; positive
same,mutagenic call,"Test System: AMES SALMONELLA TYPHIMURIUM, Strain/Indicator: TA100, Metabolic Activation: S-9",active; positive
same,mutagenic call,"Test System: AMES SALMONELLA TYPHIMURIUM, Strain/Indicator: TA102, Metabolic Activation: NONE, Method: STANDARD PLATE",active; positive
same,mutagenic call,"Test System: AMES SALMONELLA TYPHIMURIUM, Strain/Indicator: TA1535, Metabolic Activation: HAMSTER, LIVER, S-9, AROCLOR 1254, Method: PREINCUBATION",inactive; negative
same,mutagenic call,"Test System: AMES SALMONELLA TYPHIMURIUM, Strain/Indicator: TA1535, Metabolic Activation: NONE, Method: PREINCUBATION",inactive; negative
same,mutagenic call,"Test System: AMES SALMONELLA TYPHIMURIUM, Strain/Indicator: TA1535, Metabolic Activation: RAT, LIVER, S-9, AROCLOR 1254, Method: PREINCUBATION",inactive; negative
same,mutagenic call,"Test System: AMES SALMONELLA TYPHIMURIUM, Strain/Indicator: TA1537, Metabolic Activation: HAMSTER, LIVER, S-9, AROCLOR 1254, Method: PREINCUBATION",inactive; negative
same,mutagenic call,"Test System: AMES SALMONELLA TYPHIMURIUM, Strain/Indicator: TA1537, Metabolic Activation: NONE, Method: FLUCTUATION (MICROTITER)",inactive; negative
same,mutagenic call,"Test System: AMES SALMONELLA TYPHIMURIUM, Strain/Indicator: TA1537, Metabolic Activation: NONE, Method: PREINCUBATION",inactive; negative
same,mutagenic call,"Test System: AMES SALMONELLA TYPHIMURIUM, Strain/Indicator: TA1537, Metabolic Activation: RAT, LIVER, S-9, AROCLOR 1254, Method: PREINCUBATION",inactive; negative
same,mutagenic call,"Test System: AMES SALMONELLA TYPHIMURIUM, Strain/Indicator: TA2638, Metabolic Activation: NONE, Method: STANDARD PLATE",active; positive
same,mutagenic call,"Test System: AMES SALMONELLA TYPHIMURIUM, Strain/Indicator: TA7001, Metabolic Activation: NONE, Method: FLUCTUATION (MICROTITER)",inactive; negative
same,mutagenic call,"Test System: AMES SALMONELLA TYPHIMURIUM, Strain/Indicator: TA7002, Metabolic Activation: NONE, Method: FLUCTUATION (MICROTITER)",active; positive
same,mutagenic call,"Test System: AMES SALMONELLA TYPHIMURIUM, Strain/Indicator: TA7003, Metabolic Activation: NONE, Method: FLUCTUATION (MICROTITER)",inactive; negative
same,mutagenic call,"Test System: AMES SALMONELLA TYPHIMURIUM, Strain/Indicator: TA7004, Metabolic Activation: NONE, Method: FLUCTUATION (MICROTITER)",active; positive
same,mutagenic call,"Test System: AMES SALMONELLA TYPHIMURIUM, Strain/Indicator: TA7005, Metabolic Activation: NONE, Method: FLUCTUATION (MICROTITER)",active; positive
same,mutagenic call,"Test System: AMES SALMONELLA TYPHIMURIUM, Strain/Indicator: TA7006, Metabolic Activation: NONE, Method: FLUCTUATION (MICROTITER)",active; positive
same,mutagenic call,"Test System: CHINESE HAMSTER OVARY, Strain/Indicator: CHO-AS52, Metabolic Activation: NONE",inactive; negative
same,mutagenic call,"Test System: CHINESE HAMSTER OVARY, Strain/Indicator: CHO-AS52, Metabolic Activation: RAT, LIVER, S-9, 3-METHYLCHOLANTHRENE",inactive; negative
same,mutagenic call,"Test System: CHINESE HAMSTER OVARY, Strain/Indicator: CHO-K1-BH4, Metabolic Activation: NONE",inactive; negative
same,mutagenic call,"Test System: CHINESE HAMSTER OVARY, Strain/Indicator: CHO-K1-BH4, Metabolic Activation: RAT, LIVER, S-9, 3-METHYLCHOLANTHRENE",active; positive
same,mutagenic call,"Test System: CHINESE HAMSTER OVARY, Strain/Indicator: CHO-UV5, Metabolic Activation: NONE",inactive; negative
same,mutagenic call,"Test System: CHINESE HAMSTER OVARY, Strain/Indicator: CHO-UV5, Metabolic Activation: RAT, LIVER, S-9, 3-METHYLCHOLANTHRENE",active; positive
same,mutagenic call,"Test System: E. COLI, Strain/Indicator: EE97, Metabolic Activation: NONE, Method: FLUCTUATION TEST",active; positive
same,mutagenic call,"Test System: E. COLI, Strain/Indicator: WP2 (PKM101), Metabolic Activation: NONE, Method: STANDARD PLATE",active; positive
same,mutagenic call,"Test System: E. COLI, Strain/Indicator: WP2, Metabolic Activation: NONE, Method: FLUCTUATION TEST",inactive; negative
same,mutagenic call,"Test System: E. COLI, Strain/Indicator: WP2, Metabolic Activation: NONE, Method: SPOT",active; positive
same,mutagenic call,"Test System: E. COLI, Strain/Indicator: WP2 UVRA (PKM101), Metabolic Activation: NONE, Method: STANDARD PLATE",active; positive
same,mutagenic call,"Test System: E. COLI, Strain/Indicator: WP2 UVRA, Metabolic Activation: NONE, Method: SPOT",active; positive
same,mutagenic call,"Test System: E. COLI, Strain/Indicator: WP2 UVRA, Metabolic Activation: NONE, Method: STANDARD PLATE",active; positive
same,mutagenic call,"Test System: MOUSE LYMPHOMA, Strain/Indicator: L5178Y (TK+/TK-), Metabolic Activation: NONE, Method: SUSPENSION/PLATE",active; positive
Nc1c(O)cc(Cc2cc(Cl)c(N)c(OS(=O)(=O)O)c2)cc1Cl,mutagenic call,"Test System: AMES SALMONELLA TYPHIMURIUM, Strain/Indicator: TA1538, Metabolic Activation: NONE, Method: PREINCUBATION",inactive; negative
same,mutagenic call,"Test System: AMES SALMONELLA TYPHIMURIUM, Strain/Indicator: TA1538, Metabolic Activation: NONE, Method: STANDARD PLATE",inactive; negative
Cc1ccccc1N=O,mutagenic call,[1],inactive; negative
same,mutagenic call,[2],inactive; negative
same,mutagenic call,"Test System: AMES SALMONELLA TYPHIMURIUM, Strain/Indicator: TA98, Metabolic Activation: RAT, LIVER, S-9, AROCLOR 1254, Method: STANDARD PLATE",inactive; negative
same,mutagenic call,[3],inactive; negative
same,mutagenic call,"Test System: AMES SALMONELLA TYPHIMURIUM, Strain/Indicator: TA100, Metabolic Activation: RAT, LIVER, S-9, AROCLOR 1254, Method: STANDARD PLATE",active; positive
